Data reported in paper PMC9303812, “Asymmetrically Substituted m‐Terphenyl Phosphates Inhibit the Transcription Factor STAT5a” (Chembiochem, 2021).

Tests used:
STAT5b = target: T1, STAT5b (Homo sapiens, UniProt P51692); test: Fluorescence polarization (FP) binding assay, STAT5b; settings: for inhibition at 200 µM: read-out: STAT5b inhibition at 200 μM
T1 sequence (P51692 1-787): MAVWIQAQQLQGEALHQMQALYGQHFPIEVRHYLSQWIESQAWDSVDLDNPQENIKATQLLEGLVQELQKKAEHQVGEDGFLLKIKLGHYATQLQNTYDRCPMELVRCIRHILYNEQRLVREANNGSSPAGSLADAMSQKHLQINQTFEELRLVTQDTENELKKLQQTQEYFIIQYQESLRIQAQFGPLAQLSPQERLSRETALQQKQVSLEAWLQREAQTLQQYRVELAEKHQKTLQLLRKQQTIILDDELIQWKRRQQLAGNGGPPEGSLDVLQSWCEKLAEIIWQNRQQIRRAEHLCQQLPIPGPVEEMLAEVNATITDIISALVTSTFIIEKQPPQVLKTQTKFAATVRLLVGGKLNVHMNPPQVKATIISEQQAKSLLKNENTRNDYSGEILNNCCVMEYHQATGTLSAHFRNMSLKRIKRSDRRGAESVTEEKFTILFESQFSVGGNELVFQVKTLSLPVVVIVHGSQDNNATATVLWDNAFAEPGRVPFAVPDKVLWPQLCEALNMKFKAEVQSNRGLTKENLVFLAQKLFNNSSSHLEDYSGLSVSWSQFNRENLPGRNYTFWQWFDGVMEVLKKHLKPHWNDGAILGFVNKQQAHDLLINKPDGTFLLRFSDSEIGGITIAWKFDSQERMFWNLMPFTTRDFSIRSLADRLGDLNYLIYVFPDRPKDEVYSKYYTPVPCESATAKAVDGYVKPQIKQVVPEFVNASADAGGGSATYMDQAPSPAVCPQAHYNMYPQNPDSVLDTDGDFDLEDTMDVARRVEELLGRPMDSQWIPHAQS
Description: (§1) Table S1: Activities of test compounds against STAT5a and STAT5b in FP assays . Experiments were carried out in triplicate (n = 3) unless stated otherwise. n/a: not applicable.
(§2) [a]data taken from the literature.[1]
(§3) Ki values were calculated from IC50 values using the published equation.[2] […]
(§4) Table S2: Activities of 12 against STAT5 proteins in FP assays.
(§5) Fluorescence polarization assays
(§6) Fluorescence polarization assays were essentially carried out as previously described.[1] These assays quantitate to which extent a test compound is able to interfere with binding between a STAT protein and a fluorescein-labeled phosphotyrosine-containing peptide, which is known to bind to the SH2 domain of the respective STAT protein. The following protein […]
(§7) concentrations were used: 100 nM for STAT1, 150 nM for STAT3, 30 nM for STAT4, 180 nM for STAT5a, 90 nM for STAT5b and 105 nM for STAT6. All peptides were used at a concentration of 10 nM. The following peptides were used: 5 -carboxyfluorescein -GpYDKPHVL for STAT1; 5-carboxyfluorescein -GpYLPQTV-NH2 for STAT3; 5-carboxyfluorescein-GpYLPQNID-OH for STAT4; 5-carboxyfluorescein-GpYLVLDKW for STAT5a/b, and 5-carboxyfluorescein-GpYVPWQDLI-OH for STAT6. As a buffer system, 10 mM Tris (pH 8.0), 50 mM NaCl, 1 mM EDTA, 1 mM DTT, 0.1 % Nonidet P-40 substitute, and 2 % DMSO in water was used. All compounds tested were incubated for 1 h with the protein. Subsequently, the fluorescein-labeled peptide was added and the fluorescence polarization was measured with an Infinite F500 plate reader (Tecan) after another hour. IC50 values were converted to Ki-values using the published equation.[2]

STAT5a [1] = target: T2, STAT5a (Homo sapiens, UniProt P42229); test: Fluorescence polarization (FP) binding assay, STAT5a
T2 sequence (P42229 1-794): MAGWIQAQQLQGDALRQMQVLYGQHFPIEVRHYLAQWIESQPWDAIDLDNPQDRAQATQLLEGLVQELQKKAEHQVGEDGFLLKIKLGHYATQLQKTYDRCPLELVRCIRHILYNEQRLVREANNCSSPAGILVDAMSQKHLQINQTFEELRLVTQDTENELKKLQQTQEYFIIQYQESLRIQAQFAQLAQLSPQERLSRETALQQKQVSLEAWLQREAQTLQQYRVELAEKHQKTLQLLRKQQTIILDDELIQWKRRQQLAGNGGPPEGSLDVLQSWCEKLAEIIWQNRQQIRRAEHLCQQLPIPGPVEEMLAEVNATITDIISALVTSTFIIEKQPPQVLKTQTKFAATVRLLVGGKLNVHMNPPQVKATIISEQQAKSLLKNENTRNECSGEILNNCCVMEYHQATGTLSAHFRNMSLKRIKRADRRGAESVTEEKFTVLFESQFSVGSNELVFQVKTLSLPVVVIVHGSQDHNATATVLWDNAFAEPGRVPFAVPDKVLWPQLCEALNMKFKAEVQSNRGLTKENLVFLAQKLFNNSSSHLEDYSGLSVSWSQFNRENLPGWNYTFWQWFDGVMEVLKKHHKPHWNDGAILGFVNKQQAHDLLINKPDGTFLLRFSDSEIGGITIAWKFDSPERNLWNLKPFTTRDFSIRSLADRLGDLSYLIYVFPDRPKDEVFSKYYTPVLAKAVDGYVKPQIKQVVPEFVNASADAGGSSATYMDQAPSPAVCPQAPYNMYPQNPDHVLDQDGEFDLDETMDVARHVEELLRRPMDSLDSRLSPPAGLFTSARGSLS
Description: as §1, §2, §3, §4, §5, §6, §7

STAT5a [2] = target: T2, STAT5a; settings: cited from earlier work

| Structure (SMILES) | IC50 (STAT5b) | Ki (STAT5b) | IC50 (STAT5a [1]) | Ki (STAT5a [1]) | melting point | inhibition at 200 µM (STAT5b) | selectivity for STAT5a over STAT5b (STAT5a [2]) |
| --- | --- | --- | --- | --- | --- | --- | --- |
| COc1cc(-c2cc(OP(=O)(O)O)cc(-c3cc(Cl)c(Cl)c(Cl)c3)c2)cc(OC)c1OC [6 a] | 47 ± 2.6 µM | 23.1 ± 1.3 µM | 21.8 ± 0.9 µM | 10.2 ± 0.4 µM |  |  |  |
| COc1cc(-c2cc(OP(=O)(O)O)cc(-c3ccc(Cl)cc3)c2)cc(OC)c1OC [6 c] | 93.8 ± 1.5 µM | 46.1 ± 0.8 µM | 45.7 ± 3.3 µM | 22.6 ± 1.6 µM | 129 °C |  |  |
| COc1cc(-c2cc(OP(=O)(O)O)cc(-c3ccc(F)cc3)c2)cc(OC)c1OC [6 d] |  |  | 66.5 ± 5 µM | 33 ± 2.5 µM | 165 °C | 51 ± 4% |  |
| COc1cc(-c2cc(OP(=O)(O)O)cc(-c3ccc(Cl)c(F)c3)c2)cc(OC)c1OC [6 e] | 104 ± 9.5 µM | 51.2 ± 4.7 µM | 34.7 ± 4.4 µM | 17.1 ± 2.2 µM | 127 °C |  |  |
| COc1cc(-c2cc(OP(=O)(O)O)cc(-c3ccc(C(N)=O)cc3)c2)cc(OC)c1OC [6 f] |  |  | 68.9 ± 4.9 µM | 34.1 ± 2.4 µM |  | 21 ± 6% |  |
| CCOC(=O)c1ccc(-c2cc(OP(=O)(O)O)cc(-c3cc(OC)c(OC)c(OC)c3)c2)cc1 [6 g] | 125 ± 3.7 µM | 61.3 ± 1.8 µM | 91.2 ± 5.5 µM | 45.2 ± 2.7 µM | 150 °C |  |  |
| COc1cc(-c2cc(OP(=O)(O)O)cc(-c3ccc(C(=O)O)cc3)c2)cc(OC)c1OC [6 h] |  |  | 36.8 ± 2.2 µM | 18.2 ± 1.1 µM | 152 °C | 50 ± 2% |  |
| COc1cc(-c2cc(OP(=O)(O)O)cc(-c3ccc(C(C)C)cc3)c2)cc(OC)c1OC [6 i] | 51.8 ± 5.1 µM | 25.5 ± 2.5 µM | 48.5 ± 4.8 µM | 24 ± 2.4 µM | 182 °C |  |  |
| COc1cc(-c2cc(OP(=O)(O)O)cc(-c3ccc(C(C)(C)C)cc3)c2)cc(OC)c1OC [6 j] | 51.4 ± 4.9 µM | 25.3 ± 2.4 µM | 66.9 ± 4.9 µM | 33.2 ± 2.4 µM |  |  |  |
| COc1cc(-c2cc(OP(=O)(O)O)cc(-c3cc(OC)c(OC)c(OC)c3)c2)cc(OC)c1OC [compound 1] |  |  |  |  |  |  | at least 9 fold |
